Test results from patent US6376497B1, “Antifungal azole derivatives having a fluorinated vinyl group and process for preparing same” (Korea Research Institute of Chemical Technology, priority 1999, dated 2002).
≈ marks a conversion by molar mass, not a printed value.

Legend:
Assay in all cases: In vitro antifungal activity, microbroth dilution MIC
Format in all cases: cell-based
[1] = system: Candida pseudotropicalis K. 11658; conditions: C. pseudotropicalis K. 11658, RPMI-1640, 35° C., 4 to 48 hours
Outline: (§1)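 Broth microdilution adapted from NCCLS M27, in RPMI-1640 with 0.165 M MOPS, pH 7.0. Yeast or mould inoculum at 2×10^3 CFU/ml was mixed 1:1 with DMSO-derived compound solutions (200 to 0.10 μg/ml before mixing) and incubated at 35 °C for 4 to 48 h. MIC was the concentration showing no growth.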

[2] = system: Cryptococcus neoformans IFM. 40092; conditions: Cry. neoformans IFM. 40092, RPMI-1640, 35° C., 4 to 48 hours
Outline: as §1

Candida krusei K. 11655 = conditions: C. krusei K. 11655, RPMI-1640, 35° C., 4 to 48 hours
Outline: as §1

[3] = system: Candida parapsitosis A. 7330; conditions: C. parapsitosis A. 7330, RPMI-1640, 35° C., 4 to 48 hours
Outline: as §1

[4] = system: Candida albicans IFO. 1385; conditions: C. albicans IFO. 1385, RPMI-1640, 35° C., 4 to 48 hours
Outline: as §1

[5] = system: Cryptococcus neoformans A. 34144; conditions: Cry. neoformans A. 34144, RPMI-1640, 35° C., 4 to 48 hours
Outline: as §1

[6] = system: Cryptococcus neoformans B. 42419; conditions: Cry. neoformans B. 42419, RPMI-1640, 35° C., 4 to 48 hours
Outline: as §1

[7] = system: Trichophyton mentagrophytes A. 9129; conditions: T. mentagrophytes A. 9129, RPMI-1640, 35° C., 4 to 48 hours
Outline: as §1

[8] = system: Torulopsis glabrata B. 16205; conditions: T. glabrata B. 16205, RPMI-1640, 35° C., 4 to 48 hours
Outline: as §1

Candida albicans C1-2 = conditions: C. albicans C1-2, RPMI-1640, 35° C., 4 to 48 hours
Outline: as §1

[9] = system: Trichophyton mentagrophytes B. 32663; conditions: T. mentagrophytes B. 32663, RPMI-1640, 35° C., 4 to 48 hours
Outline: as §1

[10] = system: Aspergillus niger A. 16404; conditions: A. niger A. 16404, RPMI-1640, 35° C., 4 to 48 hours
Outline: as §1

[11] = system: Candida albicans A. 10231; conditions: C. albicans A. 10231, RPMI-1640, 35° C., 4 to 48 hours
Outline: as §1

[12] = system: Candida tropicalis A. 13803; conditions: C. tropicalis A. 13803, RPMI-1640, 35° C., 4 to 48 hours
Outline: as §1

[13] = system: Aspergillus furnigatus B. 19119; conditions: A furnigatus B. 19119, RPMI-1640, 35° C., 4 to 48 hours
Outline: as §1

Minimal inhibitory concentration (MIC) [1]	Minimal inhibitory concentration (MIC) [2]	Minimal inhibitory concentration (MIC) (Candida krusei K. 11655)	Minimal inhibitory concentration (MIC) [3]	Minimal inhibitory concentration (MIC) [4]	Minimal inhibitory concentration (MIC) [5]	Minimal inhibitory concentration (MIC) [6]	Minimal inhibitory concentration (MIC) [7]	Minimal inhibitory concentration (MIC) [8]	Minimal inhibitory concentration (MIC) (Candida albicans C1-2)	Minimal inhibitory concentration (MIC) [9]	Minimal inhibitory concentration (MIC) [10]	Minimal inhibitory concentration (MIC) [11]	Minimal inhibitory concentration (MIC) [12]	Minimal inhibitory concentration (MIC) [13]	SMILES
6.25 µg/mL (≈ 13 µM)	0.78 µg/mL (≈ 1.63 µM)	6.25 µg/mL (≈ 13 µM)	12.5 µg/mL (≈ 26.1 µM)	1.56 µg/mL (≈ 3.25 µM)	3.13 µg/mL (≈ 6.53 µM)	1.56 µg/mL (≈ 3.25 µM)	3.13 µg/mL (≈ 6.53 µM)	6.25 µg/mL (≈ 13 µM)	25.0 µg/mL (≈ 52.2 µM)	1.56 µg/mL (≈ 3.25 µM)	6.25 µg/mL (≈ 13 µM)	12.5 µg/mL (≈ 26.1 µM)	25.0 µg/mL (≈ 52.2 µM)	6.25 µg/mL (≈ 13 µM)	COc1ccc(C=C(F)OCC2COC(Cn3ccnc3)(c3ccc(Cl)cc3Cl)O2)cc1 (stereo not drawn) [Ex. 9]
6.25 µg/mL (≈ 12.7 µM)	≦0.10 μg/ml	25.0 µg/mL (≈ 50.7 µM)	12.5 µg/mL (≈ 25.3 µM)	1.56 µg/mL (≈ 3.16 µM)	1.56 µg/mL (≈ 3.16 µM)	1.56 µg/mL (≈ 3.16 µM)	6.25 µg/mL (≈ 12.7 µM)	12.5 µg/mL (≈ 25.3 µM)	12.5 µg/mL (≈ 25.3 µM)	1.56 µg/mL (≈ 3.16 µM)	50.0 µg/mL (≈ 101 µM)	25.0 µg/mL (≈ 50.7 µM)	50.0 µg/mL (≈ 101 µM)	12.5 µg/mL (≈ 25.3 µM)	CCOc1ccc(C=C(F)OCC2COC(Cn3ccnc3)(c3ccc(Cl)cc3Cl)O2)cc1 (stereo not drawn) [Ex. 10]
3.13 µg/mL (≈ 6.17 µM)	0.39 µg/mL (≈ 0.769 µM)	12.5 µg/mL (≈ 24.6 µM)	6.25 µg/mL (≈ 12.3 µM)	1.56 µg/mL (≈ 3.07 µM)	1.56 µg/mL (≈ 3.07 µM)	1.56 µg/mL (≈ 3.07 µM)	12.5 µg/mL (≈ 24.6 µM)	12.5 µg/mL (≈ 24.6 µM)	25.0 µg/mL (≈ 49.3 µM)	1.56 µg/mL (≈ 3.07 µM)	50.0 µg/mL (≈ 98.5 µM)	25.0 µg/mL (≈ 49.3 µM)	50.0 µg/mL (≈ 98.5 µM)	12.5 µg/mL (≈ 24.6 µM)	CC(C)Oc1cccc(C=C(F)OCC2COC(Cn3ccnc3)(c3ccc(Cl)cc3Cl)O2)c1 (stereo not drawn) [Ex. 11]
3.13 µg/mL (≈ 6.34 µM)	0.39 µg/mL (≈ 0.791 µM)	6.25 µg/mL (≈ 12.7 µM)	6.25 µg/mL (≈ 12.7 µM)	1.56 µg/mL (≈ 3.16 µM)	1.56 µg/mL (≈ 3.16 µM)	0.78 µg/mL (≈ 1.58 µM)	0.78 µg/mL (≈ 1.58 µM)	6.25 µg/mL (≈ 12.7 µM)	25.0 µg/mL (≈ 50.7 µM)	0.78 µg/mL (≈ 1.58 µM)	3.13 µg/mL (≈ 6.34 µM)	12.5 µg/mL (≈ 25.3 µM)	50.0 µg/mL (≈ 101 µM)	1.56 µg/mL (≈ 3.16 µM)	FC(=Cc1ccc2c(c1)OCO2)OCC1COC(Cn2ccnc2)(c2ccc(Cl)cc2Cl)O1 (stereo not drawn) [Ex. 12]
1.56 µg/mL (≈ 3.22 µM)	≦0.10 μg/ml	25.0 µg/mL (≈ 51.7 µM)	50.0 µg/mL (≈ 103 µM)	0.39 µg/mL (≈ 0.806 µM)	0.39 µg/mL (≈ 0.806 µM)	0.39 µg/mL (≈ 0.806 µM)	0.78 µg/mL (≈ 1.61 µM)	6.25 µg/mL (≈ 12.9 µM)	3.13 µg/mL (≈ 6.47 µM)	≦0.10 μg/ml	3.13 µg/mL (≈ 6.47 µM)	6.25 µg/mL (≈ 12.9 µM)	50.0 µg/mL (≈ 103 µM)	1.56 µg/mL (≈ 3.22 µM)	FC(=Cc1cccc(Cl)c1)OCC1COC(Cn2ccnc2)(c2ccc(Cl)cc2Cl)O1 (stereo not drawn) [Ex. 13]
